Experimental data reported in the SangsterLogP compilation.

Row | SMILES | logP
1 | CCOC(=O)CN1C(=O)CC1Sc1ccc2ccccc2c1 (stereo unspecified) | 3.4
2 | O=C1CC(Oc2ccc(-c3ccccc3)cc2)N1 (stereo unspecified) | 2.61
3 | O=C1CC(Oc2cccc(C(=O)OCc3ccccc3)c2)N1 (stereo unspecified) | 2.83
4 | O=C1CC(Oc2ccc(C(=O)/C=C/c3ccccc3)cc2)N1 (stereo unspecified) | 2.56
5 | O=C1CC(Oc2c3ccccc3cc3ccccc23)N1 (stereo unspecified) | 3.08
6 | O=C1CC(Oc2ccc([N+](=O)[O-])cc2)N1 (stereo unspecified) | 1.85
7 | CCOC(=O)CN1C(=O)CC1Oc1ccc2ccccc2c1 (stereo unspecified) | 2.8
8 | CCOC(=O)CN1C(=O)CC1Oc1ccc(C(=O)C=Cc2ccccc2)cc1 (stereo unspecified) | 3.3
9 | O=C1CC(Oc2ccc(C(=O)CCc3ccccc3)cc2)N1 (stereo unspecified) | 2.48
10 | O=C1CC(Oc2ccc(C(=O)c3ccccc3)cc2)N1 (stereo unspecified) | 2.14
11 | CC(C)(C)OC(=O)CN1C(=O)CC1Oc1ccc2ccccc2c1 (stereo unspecified) | 3.6
12 | CCOC(=O)CN1C(=O)CC1Oc1ccc(C(=O)c2ccccc2)cc1 (stereo unspecified) | 3
13 | O=C1CC(Oc2ccccc2C(=O)c2ccccc2)N1 (stereo unspecified) | 1.83

Other lines, results leading:

Row | logP | SMILES
14 | 2.64 | O=C1CC(Sc2ccc3ccccc3c2)N1 (stereo unspecified)
15 | 2.62 | O=C1CC(Sc2ccccc2C(=O)OCc2ccccc2)N1 (stereo unspecified)
16 | 1.91 | O=C1C[C@@H](Sc2ccccc2)N1
17 | 2.31 | O=C1CC(Sc2ccc(Cl)cc2)N1 (stereo unspecified)
18 | 2.66 | O=C1CC(Oc2cccc3ccccc23)N1 (stereo unspecified)
19 | 1.94 | O=C1CC(Oc2ccccc2)N1 (stereo unspecified)
20 | 2.29 | O=C1CC(Oc2ccc3ccccc3c2)N1 (stereo unspecified)
21 | 1.81 | O=C1CC(Sc2ccccn2)N1 (stereo unspecified)
